Data reported in PubChem BioAssay AID248 (DTP/NCI, 2004).
“And” between values parts separate entries of the source, which are not always exact repeats. Equal values may be shown once. Toxic doses and inconclusive results are not listed. Rule as the data show it: active = T/C of 150% or more; inactive = T/C below 125%.

Tested on: L1210 leukemia ip in BDF1 mice, survival T/C
Test: NCI In Vivo Anticancer Drug Screen. Data for tumor model L1210 Leukemia (intraperitoneal) in B6D2F1 (BDF1) mice
Settings: endpoint: mean survival time, higher = longer survival
How it was run: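 Each compound was tested against a transplantable tumor grown in mice. The endpoint was survival, with treated animals benchmarked against vehicle controls as a simple ratio.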

[1] = dose: 100.0 mg/kg/injection, schedule: Q04DX003 (ip), vehicle: saline
[2] = dose: 200.0 mg/kg/injection, schedule: Q04DX003 (ip), vehicle: saline
[3] = dose: 100.0 mg/kg/injection, schedule: Q04DX003 (ip), vehicle: Klucel (hydroxypropylcellulose) (HPC)
[4] = dose: 400.0 mg/kg/injection, schedule: Q04DX003 (ip), vehicle: Klucel (hydroxypropylcellulose) (HPC)
[5] = dose: 100.0 mg/kg/injection, schedule: Q01DX001 (ip), vehicle: carboxymethylcellulose (CMC)
[6] = dose: 200.0 mg/kg/injection, schedule: Q01DX001 (ip), vehicle: carboxymethylcellulose (CMC)
[7] = dose: 400.0 mg/kg/injection, schedule: Q01DX001 (ip), vehicle: carboxymethylcellulose (CMC)
[8] = dose: 100.0 mg/kg/injection, schedule: Q01DX009 (ip), vehicle: Klucel (hydroxypropylcellulose) (HPC)
[9] = dose: 200.0 mg/kg/injection, schedule: Q01DX009 (ip), vehicle: Klucel (hydroxypropylcellulose) (HPC)
[10] = dose: 200.0 mg/kg/injection, schedule: Q04DX003 (ip), vehicle: Klucel (hydroxypropylcellulose) (HPC)
[11] = dose: 400.0 mg/kg/injection, schedule: Q01DX009 (ip), vehicle: Klucel (hydroxypropylcellulose) (HPC)
[12] = dose: 100.0 mg/kg/injection, schedule: Q04DX002 (ip), vehicle: saline with Tween-80
[13] = dose: 200.0 mg/kg/injection, schedule: Q04DX002 (ip), vehicle: saline with Tween-80
[14] = dose: 400.0 mg/kg/injection, schedule: Q04DX002 (ip), vehicle: saline with Tween-80
[15] = dose: 100.0 mg/kg/injection, schedule: Q04DX002 (ip), vehicle: Klucel (hydroxypropylcellulose) (HPC)

Measured: T/C

CCOC(=O)C(N)C(C)(C)S (stereo unspecified)
inactive: dose: 100.0 mg/kg/injection, schedule: Q01DX009 (ip), vehicle: saline 94 % of control | [1] 96 % of control | dose: 200.0 mg/kg/injection, schedule: Q01DX009 (ip), vehicle: saline 103 % of control | [2] 102 % of control | dose: 400.0 mg/kg/injection, schedule: Q01DX009 (ip), vehicle: saline 100 % of control | dose: 400.0 mg/kg/injection, schedule: Q04DX003 (ip), vehicle: saline 103 % of control

Cc1cc(=O)[nH]c2c1ccc1[nH]c(=O)cc(C)c12
inactive: dose: 100.0 mg/kg/injection, schedule: Q01DX001 (ip), vehicle: Klucel (hydroxypropylcellulose) (HPC) 91 % of control | [3] 95 % of control | dose: 200.0 mg/kg/injection, schedule: Q01DX001 (ip), vehicle: Klucel (hydroxypropylcellulose) (HPC) 94 % of control | dose: 400.0 mg/kg/injection, schedule: Q01DX001 (ip), vehicle: Klucel (hydroxypropylcellulose) (HPC) 91 % of control | [4] 86 % of control

OC1C(SCc2ccccc2)OCC2OC3(CCCCC3)OC21 (stereo unspecified)
inactive: dose: 100.0 mg/kg/injection, schedule: Q01DX001 (ip), vehicle: saline 100 % of control | dose: 200.0 mg/kg/injection, schedule: Q01DX001 (ip), vehicle: saline 102 % of control | dose: 400.0 mg/kg/injection, schedule: Q01DX001 (ip), vehicle: saline 104 % of control

CC(CC#N)NCC[P+](c1ccccc1)(c1ccccc1)c1ccccc1 (stereo unspecified)
inactive: [1] 95 % of control | [2] 96 % of control

CCN(CC)c1ccc2c(c1)C(O)c1ccccc1-2 (stereo unspecified)
inactive: dose: 100.0 mg/kg/injection, schedule: Q04DX003 (ip), vehicle: saline with Tween-80 94 % of control and 108 % of control | dose: 200.0 mg/kg/injection, schedule: Q04DX003 (ip), vehicle: saline with Tween-80 104 % of control and 105 % of control | dose: 400.0 mg/kg/injection, schedule: Q04DX003 (ip), vehicle: saline with Tween-80 102 % of control and 108 % of control

C[Si](C)(CCl)O[Si](C)(C)CCl
inactive: dose: 50.0 mg/kg/injection, schedule: Q01DX001 (ip), vehicle: carboxymethylcellulose (CMC) 113 % of control | [5] 97 % of control | [6] 106 % of control | [7] 97 % of control

Clc1nc(Cl)c(Cl)[nH]1
inactive: dose: 6.25 mg/kg/injection, schedule: Q01DX009 (ip), vehicle: saline with Tween-80 94 % of control | dose: 12.5 mg/kg/injection, schedule: Q01DX009 (ip), vehicle: saline with Tween-80 93 % of control

CCCc1ccc2c(c1)CCCC2
inactive: [8] 94 % of control | [3] 94 % of control | [9] 90 % of control | [10] 93 % of control | [11] 97 % of control | [4] 94 % of control

CCOc1ccc(NC(=O)C(Br)C(Br)C(=O)O)cc1 (stereo unspecified)
inactive: [8] 94 % of control | [9] 98 % of control | [11] 100 % of control

CCCCNS(=O)(=O)c1n[nH]c(=O)[nH]c1=O
inactive: dose: 100.0 mg/kg/injection, schedule: Q01DX001 (ip), vehicle: other 104 % of control | dose: 200.0 mg/kg/injection, schedule: Q01DX001 (ip), vehicle: other 101 % of control | dose: 400.0 mg/kg/injection, schedule: Q01DX001 (ip), vehicle: other 93 % of control

CCOC(=O)c1ccc(Nc2nnc(-c3ccc(OC)cc3OC)s2)cc1
inactive: [12] 104 % of control | [13] 104 % of control | [14] 101 % of control

O=NN(CCF)C(=O)NC1C2CC3CC(C2)CC1C3 (stereo unspecified)
inactive: dose: 12.5 mg/kg/injection, schedule: Q01DX001 (ip), vehicle: other 114 % of control | dose: 25.0 mg/kg/injection, schedule: Q01DX001 (ip), vehicle: other 123 % of control
active: dose: 50.0 mg/kg/injection, schedule: Q01DX001 (ip), vehicle: other 167 % of control

COc1cc(OC)c(OC)cc1/C=C/c1cc[n+](C)c2ccccc12
inactive: dose: 25.0 mg/kg/injection, schedule: Q04DX002 (ip), vehicle: Klucel (hydroxypropylcellulose) (HPC) 95 % of control | dose: 50.0 mg/kg/injection, schedule: Q04DX002 (ip), vehicle: Klucel (hydroxypropylcellulose) (HPC) 101 % of control | [15] 109 % of control and 111 % of control

COc1cc(C=Nc2cccc(C(F)(F)F)c2)ccc1OC(=O)c1ccccc1
inactive: [8] 86 % of control | [9] 94 % of control | [11] 91 % of control

O=C(CBr)c1cccc2c1ccc1ccccc12
inactive: dose: 1.56 mg/kg/injection, schedule: Q01DX009 (ip), vehicle: other 100 % of control | dose: 3.13 mg/kg/injection, schedule: Q01DX009 (ip), vehicle: other 95 % of control | dose: 6.25 mg/kg/injection, schedule: Q01DX009 (ip), vehicle: other 95 % of control and 98 % of control | dose: 12.5 mg/kg/injection, schedule: Q01DX005 (ip), vehicle: other 101 % of control | dose: 12.5 mg/kg/injection, schedule: Q04DX002 (ip), vehicle: other 102 % of control | dose: 25.0 mg/kg/injection, schedule: Q01DX005 (ip), vehicle: other 104 % of control | dose: 25.0 mg/kg/injection, schedule: Q04DX002 (ip), vehicle: other 91 % of control | dose: 50.0 mg/kg/injection, schedule: Q04DX002 (ip), vehicle: other 102 % of control

CCOC(=O)Cn1c(=O)c2ccccc2c2ccccc21
inactive: [3] 97 % of control | [10] 104 % of control | [4] 101 % of control

Cc1ccc(Cl)c(NC(=O)Nc2ccccc2F)c1
inactive: [8] 97 % of control | [9] 100 % of control | [11] 103 % of control

C=CCOC(=O)Nc1ccc(S(=O)(=O)N(C)C)cc1
inactive: [5] 97 % of control | [6] 93 % of control | [7] 97 % of control

C=CCc1ccc(OC(=O)Nc2cccc(Cl)c2)c(OC)c1
inactive: dose: 100.0 mg/kg/injection, schedule: Q01DX009 (ip), vehicle: carboxymethylcellulose (CMC) 98 % of control and 102 % of control | [15] 95 % of control | dose: 100.0 mg/kg/injection, schedule: Q04DX002 (ip), vehicle: carboxymethylcellulose (CMC) 102 % of control | dose: 100.0 mg/kg/injection, schedule: Q04DX003 (ip), vehicle: carboxymethylcellulose (CMC) 101 % of control | dose: 200.0 mg/kg/injection, schedule: Q01DX009 (ip), vehicle: carboxymethylcellulose (CMC) 100 % of control and 92 % of control | dose: 200.0 mg/kg/injection, schedule: Q04DX002 (ip), vehicle: Klucel (hydroxypropylcellulose) (HPC) 92 % of control | dose: 200.0 mg/kg/injection, schedule: Q04DX002 (ip), vehicle: carboxymethylcellulose (CMC) 112 % of control | dose: 200.0 mg/kg/injection, schedule: Q04DX003 (ip), vehicle: carboxymethylcellulose (CMC) 95 % of control | dose: 400.0 mg/kg/injection, schedule: Q01DX009 (ip), vehicle: carboxymethylcellulose (CMC) 95 % of control and 98 % of control | dose: 400.0 mg/kg/injection, schedule: Q04DX002 (ip), vehicle: Klucel (hydroxypropylcellulose) (HPC) 95 % of control | dose: 400.0 mg/kg/injection, schedule: Q04DX002 (ip), vehicle: carboxymethylcellulose (CMC) 105 % of control | dose: 400.0 mg/kg/injection, schedule: Q04DX003 (ip), vehicle: carboxymethylcellulose (CMC) 100 % of control

O=C(O)C(=O)Cc1cccc(Cl)c1[N+](=O)[O-]
inactive: dose: 75.0 mg/kg/injection, schedule: Q04DX003 (ip), vehicle: saline 96 % of control | dose: 150.0 mg/kg/injection, schedule: Q04DX003 (ip), vehicle: saline 102 % of control | dose: 300.0 mg/kg/injection, schedule: Q04DX003 (ip), vehicle: saline 98 % of control

OC[CH2][Hg][I]
inactive: dose: 1.56 mg/kg/injection, schedule: Q01DX009 (ip), vehicle: Klucel (hydroxypropylcellulose) (HPC) 88 % of control | dose: 6.25 mg/kg/injection, schedule: Q01DX009 (ip), vehicle: Klucel (hydroxypropylcellulose) (HPC) 93 % of control

C/C(CC(=O)N1CCCCC1)=N\NC(N)=S
inactive: [5] 97 % of control | [6] 103 % of control | [7] 94 % of control

CC1CN=C(CCc2ccc(NC(=O)c3ccc(C(=O)Nc4ccc(CCC5=NCC(C)N5)cc4)cc3)cc2)N1 (stereo unspecified)
inactive: dose: 240.0 mg/kg/injection, schedule: Q01DX Z (ip), vehicle: saline 97 % of control | dose: 480.0 mg/kg/injection, schedule: Q01DX Z (ip), vehicle: saline 92 % of control

O/N=C(/C(=N/O)c1ccccc1)c1ccccc1.O/N=C(/C(=N/O)c1ccccc1)c1ccccc1.[Ni]
inactive: [12] 97 % of control | [13] 97 % of control | [14] 93 % of control
